Assay results from EP4663640A1 (Shanghai Institute of Materia Medica, Chinese Academy of …, priority 2023, dated 2024).

How the values were obtained:
hTRPC5 [1] = target: T1, hTRPC5 (Homo sapiens, UniProt Q9UL62); assay: TRPC5 agonist activity assay (FLIPR calcium fluorescence); format: cell-based; settings: Table 2, agonist activity on TRPC5 channels
T1 construct: expressed in transfected cells; host or cells: HEK-293
T1 sequence (Q9UL62 1-973): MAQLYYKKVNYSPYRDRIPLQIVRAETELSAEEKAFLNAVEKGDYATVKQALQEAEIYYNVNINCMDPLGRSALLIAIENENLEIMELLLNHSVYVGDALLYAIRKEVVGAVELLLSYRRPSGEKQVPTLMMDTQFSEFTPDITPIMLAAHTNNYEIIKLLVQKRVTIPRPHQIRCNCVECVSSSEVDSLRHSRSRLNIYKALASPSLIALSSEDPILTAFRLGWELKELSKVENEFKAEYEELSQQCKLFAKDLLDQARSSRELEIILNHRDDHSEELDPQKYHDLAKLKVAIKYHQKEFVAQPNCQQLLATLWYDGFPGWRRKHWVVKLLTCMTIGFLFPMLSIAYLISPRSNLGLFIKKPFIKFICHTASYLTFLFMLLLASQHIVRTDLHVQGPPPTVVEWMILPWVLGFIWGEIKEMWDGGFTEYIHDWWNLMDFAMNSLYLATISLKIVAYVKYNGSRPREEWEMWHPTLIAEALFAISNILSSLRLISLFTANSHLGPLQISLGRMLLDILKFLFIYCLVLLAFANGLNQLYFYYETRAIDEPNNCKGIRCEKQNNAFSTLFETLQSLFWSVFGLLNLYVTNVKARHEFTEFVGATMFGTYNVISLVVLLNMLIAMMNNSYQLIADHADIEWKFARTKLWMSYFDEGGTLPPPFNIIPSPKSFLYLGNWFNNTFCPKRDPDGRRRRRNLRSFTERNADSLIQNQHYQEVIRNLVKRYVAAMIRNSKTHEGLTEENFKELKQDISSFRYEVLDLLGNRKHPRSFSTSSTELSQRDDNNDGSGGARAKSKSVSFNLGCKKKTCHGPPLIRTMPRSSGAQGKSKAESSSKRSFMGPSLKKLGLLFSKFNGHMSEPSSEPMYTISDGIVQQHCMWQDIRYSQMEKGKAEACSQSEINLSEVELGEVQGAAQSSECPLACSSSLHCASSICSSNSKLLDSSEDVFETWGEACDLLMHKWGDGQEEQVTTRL
Procedure: HEK-293 cells expressing hTRPC5 were seeded into PDL-coated black-walled 96-well plates, with 2×10^4 cells per well. After 8 hours of culture, the original culture medium was discarded, and 60 µL of 4 µM Fluo-4/AM dye was added immediately. The cells were incubated at 37 °C for 60 minutes, and then rinsed with calcium flow detection buffer 5 times. The cell plates were placed in FLIPR®TETRA (Molecular Devices, Sunnyvale, CA, USA) preheated at 30 °C, excited at a wavelength of 488 nm, and the fluorescence signals were continuously recorded in the range of 515-535 nm with a sampling frequency of 1 s. After recording for 360 seconds, solvent control and test compounds were added, and the fluorescence signal was collected for another 600 seconds. The fluorescence signal of the trajectory diagram is represented by F/F0, wherein F is the fluorescence signal at different time points, and F0 is the basic fluorescence signal, that is, the average value of the fluorescence signal at the first 10 time points. The dose-effect diagram first took F/F0 =1 as the baseline. The area under the curve of the change in fluorescence intensity after adding test compound was calculated. IC50 value was calculated using log[agonist] vs. response - Variable slope, taking into account the area under the curve and the log value of the concentration of the compound.

[2] = Liver microsome stability test, human
hTRPC5 [3] = target: T1, hTRPC5; assay: TRPC5 inhibitory activity assay (FLIPR calcium fluorescence, Englerin A stimulation); format: cell-based; settings: Table 1, TRPC5 channels, HEK-293 cells expressing hTRPC5; read-out: FLIPR IC50
Procedure: HEK-293 cells expressing hTRPC3, hTRPC4 or hTRPC5 were seeded into black-bottomed 96-well plates coated with poly-lysine (PDL), with 2×10^4 cells per well. After 8 h of culture, the original culture medium was discarded, and 60 µL of Fluo-4/AM dye with a final concentration of 4 µM was added. The plates were incubated at 37 °C for 60 min, and then rinsed five times with calcium flow detection buffer. […] Then, the agonist Englerin A (EA) (MedChemExpress, Shanghai, China, final concentration of 0.3nM) was added, and the fluorescence signal was collected for 600 seconds. The fluorescence signal of the trajectory diagram is represented by F/F0, wherein F is the fluorescence signal at different time points, and F0 is the basic fluorescence signal, that is, the average value of the fluorescence signal at the first 10 time points. […] The area under the curve of the change in fluorescence intensity after adding EA was calculated. IC50 value was calculated using log[Inhibitor] vs. response - Variable slope, taking into account the area under the curve and the log value of the concentration of the compound.

[4] = Preliminary pharmacokinetic evaluation, plasma drug concentration after oral administration to mice; format: in vivo, ICR mice; settings: male, ICR, mouse, oral 10 mg/kg, Mean ± SD, N = 3
Procedure: The test compound was prepared according to the following solvent: an aqueous solution of DMSO/Tween 80/0.5% (m/v) CMC-Na at a ratio of 2:2:96 (v/v/v), with a drug concentration of 1 mg/mL. Then, the test compound was gavaged to mice at a dosage of 10 mL/kg, with a dose of 10 mg/kg. Each compound was administered to 3 mice. At 1h and 4h after administration, about 50 µL of blood was collected from the orbital venous plexus of the mouse and placed in a centrifuge tube containing EDTA-K2 anticoagulant.

mice [5] = assay: Tail suspension test (antidepression); format: in vivo; settings: oral 10 mg/kg, before versus after administration (Figure 4)
Procedure: (§1) The drug to be tested was dissolved in DMSO: Tween 80: distilled water at a ratio of 2:2:96 (v/v/v), and then administered to mice by gavage at a volume of 10 mL/kg. […] The blank control group was only given 10 mL/kg of the above solvent.
The mouse tail suspension test (TST) is a widely used experimental method to evaluate the effectiveness of antidepressants and other psychotropic drugs. The principle of the test is to suspend a mouse by its tail and observe its behavior. The mouse will initially struggle to escape, but when it realizes that escape is impossible, it will eventually stop struggling and enter a state of immobility that indicates despair. This immobility behavior is used to measure depression-like states, and the severity of the condition is assessed by recording the duration of immobility.
The same mouse was subjected to the tail suspension test immediately after the marble burying test. A tail suspension test box was built using a black frosted acrylic board, 55 cm high, 15 cm long, and 11.5 cm wide. The three sides and top of the box were frosted blackboards, and one side was used for video recording. The mouse tail was wrapped with yellow tape 2 cm away from the tip of the tail, and the mouse was hung upside down in the middle of the top acrylic board. The tip of the mouse tail was about 3 cm away from the acrylic board, and the body was suspended and could not touch the surrounding board wall. The test time for each mouse lasted for 6 minutes, and the immobility time of the mouse during this time was counted. After the experiment, the mouse was returned to the cage, and the inside of the box and the table were wiped with alcohol to remove the smell of the previous mouse to prevent affecting the next mouse experiment. The criteria for immobility in the tail suspension test: stop struggling, no flexion or twisting of the body, no swinging of the hind limbs, and slight swinging of the forelimbs and head were also counted as immobility time.

mice [6] = assay: Marble burial test (antianxiety); format: in vivo; settings: oral 10 mg/kg, before versus after administration (Figure 3)
Procedure: as §1
The mouse marble burial test is a behavioral assay used for the screening of antianxiety drugs. It exploits the natural digging behavior of mice in environments such as burrows or escape tunnels and is sensitive to small changes in behavior caused by genetic manipulation, disease, or drug treatment.
A 5cm thick sawdust litter was laid in a 33 cm×24 cm×28 cm carton, and 4×5 black marbles (4 cm apart) with a total of 20 black marbles of 14mm in diameter were neatly placed on the litter. The mouse was put into the carton facing the corner for 30 minutes. After 30 minutes, the mouse was carefully taken out and the number of marbles buried by the mouse was counted. If more than 2/3 of the marble was buried, it was considered a whole marble. First, a blank experiment was conducted. Before the experiment, the mouse was taken to the experimental environment to adapt. After 1 hour, the experiment began. After the experiment, the mouse was returned to the cage and the number of marbles buried by the mouse was counted. On the second day, the mouse was taken to the experimental environment to adapt for 1 hour before the drug was administered. After the drug administration, the marble burying experiment was conducted for […]. After the experiment, the mouse was carefully taken out and returned to the cage to prevent the mouse from escaping violently and affecting the experimental results. After counting, the black marbles were taken out and wiped with alcohol, and the litter was turned over again to remove the smell of the previous mouse to prevent it from affecting the experiment of the next mouse. The marbles were neatly placed for the experiment of the next mouse.

Row | SMILES | EC50 (hTRPC5 [1]) [nM] | also measured
1 | CC(C)n1c(=O)n(CCCO)c(=O)c2c1nc(C1CC1C1CC1)n2Cc1ccc(Cl)cc1 (stereo not drawn) [Example E14, 8-([1,1'-bis(cyclopropan)]-2-yl)-7-(4-chlorobenzyl)-1-(3-hydroxypropyl)-3-isopropyl-3,7-dihydro-1H-purine-2,6-dione] | 105 | 
2 | Cn1c(=O)n(CCCO)c(=O)c2c1nc(C1(F)CCC(N3CCCC3)CC1)n2Cc1ccc(Cl)cc1 (stereo not drawn) [Example E55, 7-(4-chlorobenzyl)-8-(1-fluoro-4-(pyrrolidin-1-yl)cyclohexyl)-1-(3-hydroxypropyl)-3-methyl-3,7-dihydro-1H-purine-2,6-dione] | 700 | 
3 | COC1(c2nc3c(c(=O)n(CCCO)c(=O)n3C)n2Cc2ccc(Cl)cc2)CCC(C)(C)CC1 [Example E26, 7-(4-chlorobenzyl)-1-(3-hydroxypropyl)-8-(1-methoxy-4,4-dimethylcyclohexyl)-3-methyl-3,7-dihydro-1H-purine-2,6-dione] | 100 to 200 | 
4 | Cn1c(=O)n(CCCO)c(=O)c2c1nc(C1(F)CCC(C(F)(F)F)CC1)n2Cc1ccccc1 (stereo not drawn) [Example E63, 7-benzyl-8-(1-fluoro-4-(trifluoromethyl)cyclohexyl)-1-(3-hydroxypropyl)-3-methyl-3,7-dihydro-1H-purine-2,6-dione] |  | Stability Evaluation ([2]; Human liver microsomes): Better (MF% >70%, better metabolic stability); MF % ([2]; Human liver microsomes, metabolic bioavailability): 74.4%; half-life at 1 µM ([2]; human, liver microsomes, pH 7.4): 5.18 h; IC50 (hTRPC5 [3]): 0.86 nM; concentration at 1 h ([4]; 1h): 2800 ± 860 ng/mL; concentration at 4 h ([4]; 4h): 2060 ± 755 ng/mL
5 | CNCCC(Oc1ccc(C(F)(F)F)cc1)c1ccccc1 (stereo not drawn) [Fluoxetine, reference compound] |  | immobility time of mice (mice [5]): significantly reduced; number of marbles buried by mice (mice [6]): significantly reduced
6 | Cn1c(=O)n(CCCO)c(=O)c2c1nc(C1(F)CC(c3ccccc3)C1)n2Cc1ccc(Cl)cc1 (stereo not drawn) [Example E17, 7-(4-chlorobenzyl)-8-(1-fluoro-3-phenylcyclobutyl)-1-(3-hydroxypropyl)-3-methyl-3,7-dihydro-1H-purine-2,6-dione] | 242 | 

The next lines start with results.

Row | EC50 (hTRPC5 [1]) [nM] | SMILES | also measured
7 | 100 to 200 | Cn1c(=O)n(CCCO)c(=O)c2c1nc(C1=CCC(F)(F)CC1)n2Cc1ccc(Cl)cc1 [Example E37, 7-(4-chlorobenzyl)-8-(4,4-difluorocyclohex-1-en-1-yl)-1-(3-hydroxypropyl)-3-methyl-3,7-dihydro-1H-purine-2,6-dione] | 
8 | 36.1 | CC(C)OC1CCC(c2nc3c(c(=O)n(CCCO)c(=O)n3C)n2Cc2ccc(Cl)cc2)CC1 (stereo not drawn) [Example E7, 7-(4-chlorobenzyl)-1-(3-hydroxypropyl)-8-(4-isopropoxycyclohexyl)-3-methyl-3,7-dihydro-1H-purine-2,6-dione] | 
9 | 170 | Cn1c(=O)n(CCCO)c(=O)c2c1nc(C1(F)CCC(c3ccccc3)CC1)n2Cc1ccc(Cl)cc1 (stereo not drawn) [Example E54, 7-(4-chlorobenzyl)-8-(1-fluoro-4-phenylcyclohexyl)-1-(3-hydroxypropyl)-3-methyl-3,7-dihydro-1H-purine-2,6-dione] | 
10 | 102 | CC(C)C1CCC(F)(c2nc3c(c(=O)n(CCCO)c(=O)n3C)n2Cc2ccc(Cl)cc2)CC1 (stereo not drawn) [Example E31, 7-(4-chlorobenzyl)-8-(1-fluoro-4-isopropylcyclohexyl)-1-(3-hydroxypropyl)-3-methyl-3,7-dihydro-1H-purine-2,6-dione] | 
11 | 74.5 | CC(C)OC1CCC(F)(c2nc3c(c(=O)n(CCCO)c(=O)n3C)n2Cc2ccc(Cl)cc2)CC1 (stereo not drawn) [Example E19, 7-(4-chlorobenzyl)-8-(1-fluoro-4-isopropoxycyclohexyl)-1-(3-hydroxypropyl)-3-methyl-3,7-dihydro-1H-purine-2,6-dione] | 
12 | 141 | Cn1c(=O)n(CCCO)c(=O)c2c1cc(C1CCC(c3ccccc3)CC1)n2Cc1ccc(Cl)cc1 (stereo not drawn) [Example E5, 5-(4-chlorobenzyl)-3-(3-hydroxypropyl)-1-methyl-6-(4-phenylcyclohexyl)-1,5-dihydro-2H-pyrrolo[3,2-d]pyrimidine-2,4(3H)-dione] | 
